From paper PMC4380168 (Bioorganic & medicinal chemistry, 2015)
Read-outs that look alike come from different tables or passages of the source.

Assays:
[1] = ref [7]; cited from earlier work
A549 (lung cancer) = assay: Cytotoxicity against A549 lung carcinoma cell line; format: cell-based, human
[2] = test system: MDA-MB-231 (breast cancer); assay: Cytotoxicity against MDA-MB-231 breast carcinoma cell line; format: cell-based; settings: Homo sapiens
SK-OV-3 (ovarian cancer) = assay: Cytotoxicity against SK-OV-3 ovarian carcinoma cell line; format: cell-based, human
[3] = Cytotoxicity against MRC-5 cell line; format: cell-based, human; settings: human, MRC-5 cells (human lung fibroblast, embryonic cell line)
[4] = test system: polio-infected HeLa cells; settings: at 10^−7 M; ref [5],[4b]; cited from earlier work
P.f. K1 = settings: read-out: P.f. K1 IC50; antiprotozoal; ref [5],[4b]; cited from earlier work
MRC-5 = settings: read-out: MRC-5 IC50; cytotoxicity against human eukaryotic cell lines; ref [5],[4b]; cited from earlier work
[5] = test system: MRC-5 (human lung fibroblast); assay: Cytotoxicity against MRC-5 cell line; format: cell-based; settings: read-out: MRC-5 EC50 (human lung fibroblast); triplicates

For `CC[C@]1(NC(=O)N(C)C)[C@@H](N)[C@H](Nc2cccc(C(C)=O)c2)[C@](O)(COC(=O)c2c(C)cccc2O)[C@]1(C)O` [Compound 2, 7-Deoxypactamycin], the “antiprotozoal activity relative to 1” value [1] is given as “increased antiprotozoal activity relative to 1”.
For jogyamycin [Compound 3], the “antiprotozoal activity relative to 1” value [1] is listed as “increased antiprotozoal activity relative to 1”.
In the case of `CC(=O)c1cccc(N[C@H]2[C@H](N)[C@@](NC(=O)N(C)C)([C@H](C)O)[C@@](C)(O)[C@@]2(O)COC(=O)c2c(C)cccc2O)c1` [Compound 1, pactamycin], the EC50 (A549 (lung cancer); Homo sapiens, A549, read-out: A549 EC50) is reported as 160 nM, the EC50 (A549 (lung cancer); Homo sapiens, A549, read-out: A549 EC50 (lung cancer)) is reported as 160 nM and the EC50 ([2]; MDA-MB-231, read-out: MDA-MB-231 EC50) is reported as 124 nM. For the same molecule, the EC50 ([2]; MDA-MB-231, read-out: MDA-MB-231 EC50 (breast cancer)) was 124 nM, the EC50 (SK-OV-3 (ovarian cancer); Homo sapiens, SK-OV-3, read-out: SK-OV-3 EC50 (ovarian cancer)) was 129 nM and the EC50 [3] was 53 nM. The “inhibition of polio-infected HeLa cells” value [4] was “complete inhibition”, the IC50 (P.f. K1) was 14.2 nM and the IC50 (MRC-5) was 95 nM.
Molecule `CC(=O)c1cccc(N[C@H]2[C@H](N)[C@]3(NC(=O)O[C@H]3C)[C@@](C)(O)[C@@]2(O)CO)c1` [Compound 21, De-6-MSA pactamycate] has an EC50 (A549 (lung cancer); read-out: A549 EC50 (lung cancer), triplicates) of 6000 nM, an EC50 (SK-OV-3 (ovarian cancer); read-out: SK-OV-3 EC50 (ovarian cancer), triplicates) of 3800 nM and an EC50 [5] of 2930 nM.
